Like-named read-outs stand apart in the source and are kept apart here.
Columns and labels:
hpao mRNA = system: hpao mRNA
Method: In addition, a reverse-transcriptase-PCR (RT-PCR) experiment was performed to analyze the expression of hpao in OVCAR-3 and HL-60 cells. Briefly, about 10^6 to 10^7 cells were harvested and the total RNA of each sample was isolated by using the RNeasy miniprep kit (QIAGEN). A 1 μg mRNA sample was used for cDNA synthesis with the MMLV reverse transcriptase following the manufacturer's instructions provided with the Advantage RT-for-PCR Kit (Clontech). Human liver and placenta polyA mRNA were also obtained from Clontech. cDNA amplification was achieved following the SMART RACE™ cDNA Amplification method (Clontech). A pair of gene specific primers was generated based on the hpao cDNA sequence; hpao1 was the sense primer 5′-[…] ACCTTTC-3′ (SEQ ID NO:17), and hpao2R was the antisense primer 5′-[…] AGT-3′ (SEQ ID NO:18). Positive control amplimers for human G3PDH (glyceraldehyde-3-phosphate-dehydrogenase) were also used; the sense primer was 5′-[…] G-3′ (SEQ ID NO:19) and the antisense primer was 5′-[…] CT-3′ (SEQ ID NO:20). PCR was performed at 94° C. for 3 min, 25 cycles at 94° C. for 10 sec, 68° C. for 1 min, and 72° C. for 1 min.
In this Example, the method used to examine hpao mRNA production by cultured cells undergoing apoptosis is described.

mPAO = molecular target: T1, mPAO (Mus musculus, UniProt Q8C0L6); assay: Steady-state kinetic spectrophotometric assay of mPAO (H2O2 formation); assay type: biochemical, murine
T1 construct: the full length cDNA of mpao was released by Nde I and Hind III treatment, and ligated into Nde I and Hind III sites of pET29c; made in house; host or cells: E. coli BL21 GOLD (DE3), plasmid pET-MPAO (pET29c)
T1 sequence (Q8C0L6 whole entry E184K/L285S/R416L/R417S/Q419R/E451A/V490I/S491G/V497A): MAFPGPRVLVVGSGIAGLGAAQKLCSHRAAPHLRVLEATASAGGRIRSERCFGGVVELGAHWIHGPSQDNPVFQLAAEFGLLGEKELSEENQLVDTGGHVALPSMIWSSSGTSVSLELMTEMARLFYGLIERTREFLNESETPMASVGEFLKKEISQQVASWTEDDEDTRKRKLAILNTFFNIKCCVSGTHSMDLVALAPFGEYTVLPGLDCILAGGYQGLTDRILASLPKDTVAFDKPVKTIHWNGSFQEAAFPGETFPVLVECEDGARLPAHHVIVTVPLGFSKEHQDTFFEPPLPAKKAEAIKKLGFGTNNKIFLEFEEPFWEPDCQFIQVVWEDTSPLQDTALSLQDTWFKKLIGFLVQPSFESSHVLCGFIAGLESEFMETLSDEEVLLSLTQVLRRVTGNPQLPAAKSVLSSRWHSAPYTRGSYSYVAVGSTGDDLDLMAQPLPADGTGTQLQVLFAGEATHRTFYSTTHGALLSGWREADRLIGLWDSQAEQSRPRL
Method: In this example the methods used to examine mPAO steady state kinetics are described. Spectrophotometric assays were done at 30° C. in a potassium phosphate buffer (e.g., 50 mM KH2PO4/KOH buffer, pH 7.6 saturated in air or in pure oxygen), using a published procedure which provides a continuous monitor of the H2O2 produced (Holt et al., Anal. Biochem. 244:384-392 [1997]). These assays were done in 1 mL cuvette with 0.8 mL of solution containing varying amounts of substrate, 1 mM vanillic acid, 0.5 mM 4-aminopyrine, 4 units of horseradish peroxidase, and 0.1-0.2 μg of mPAO. The reactions were monitored at 498 nm with a UVIKON 840 spectrophotometer (KONTRON Instruments) for the formation of the quinoneimine dye (ε498=4,650 M^−1cm^−1 at pH 7.6), the condensation product of vanillic acid and oxidized 4-aminopyrine. The latter is produced from 4-aminopyrine by the action of horseradish peroxidase that has been oxidized by H2O2 (Holt et al., supra [1997]). The assays were done at 25° C. by varying the concentration of the amine substrate, while the oxygen concentration in the assay solution was constant at the air-saturating level of 237 μM. The data were fit, by nonlinear regression to steady-state kinetic equations (McIntire et al., Biochem. J. 228:325-335 [1985]), which provided the values, and standard deviations thereof, for kcat′, KS′ and kcat′/KS′ (=Q, the specificity constant). [formula]
The dissociation constants, KD, for these and other amines were estimated in the following manner. It was assumed that the competition was competitive, since in the presence of the inhibitors, at a saturating N^1-acetyl-Spm concentration, the rate of the reaction was equal to the value of the true kcat. It was also assumed that the mechanism is of the ping-pong type. Thus, the applicable steady-state equation is (Segal, Enzyme Kinetics, John Wiley & Sons, New York, pp. 606-625 [1975]): [formula]
On the left, kcat and KS are the steady-state parameters for N^1-acetyl-Spm (S), and I and KI (=KD), represent the inhibitor and its inhibition constant, respectively. KIO and KO are the inhibition constant and Michaelis constant for O2, respectively. The equation can be converted to the expression on the right side when: [formula]
The expressions for kcat′ and KS′ (at the fixed [O2]=[…]) are the same as those when the inhibitor is absent. Since the values of kcat′ and KS″ were predetermined, inhibition assays were carried out where [S]≈KS″, which, in the absence of I, would give a rate, ν≈0.5×kcat″. In these assay, for each inhibitor, [I] was adjusted so the apparent rate was somewhat less then 0.5 kcat′. In this situation, after substitution and rearrangement, Equation 1 reduces to: [formula]
Since [I] and kcat′ are known, and ν is the measured rate in the presence of the inhibitor, the value of KI′ can be estimated. It is assumed that these apparent KI′ are good approximations of the true KI (=KD) values. […] The estimated KI′ values provided in Table 1, are the averages of these four values. If the reactions of the polyamine substrates and O2 with mPAO obeys a ping-pong type mechanism, the apparent values, kcat′/KS′, are equal to the true kcat/KS values.

CC(=O)NCCCNCCCCNCCCN [N^1-acetyl-Spm, N^1-acetyl-spermine]
hpao mRNA level (hpao mRNA; HL-60 cells, 48 hr exposure to high concentrations): no change
hpao mRNA level (hpao mRNA; OVCAR-3 cells, very quickly after exposure): significant levels of hpao mRNA were induced
kcat′ (mPAO; apparent value, air-saturated 50 mM KH2PO4/KOH buffer pH 7.6, [O2] 237 μM): 4.53 ± 0.05 s⁻¹
KS′ (mPAO; apparent value, air-saturated buffer pH 7.6, [O2] 237 μM): 1.78 ± 0.1 µM
substrate for mPAO (oxidation by mPAO) (mPAO; in words): good mPAO substrates
kcat′/KS′ (mPAO; specificity constant, air-saturated buffer pH 7.6): (2.54 ± 0.01) × 10^6 M^−1sec^−1
